Reference: patent publication US20230233569A1 (Revolution Medicines, Inc., priority 2020, published 2023)

Assays:
[1] = tested on: Capan-1 (K-Ras G12V); assay: CellTiter-Glo cell viability assay, 5-day treatment; format: cell-based; settings: Homo sapiens, CAPAN-1, 120 h, 5-day treatment; read-out: Capan-1 Cell Viability assay data (K-Ras G12V, IC50)
Outline: (§1)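 Viability is read as luminescence on day 5 after direct compound addition to plated cells, following about 30 minutes' room-temperature equilibration. Each signal is scaled to mean DMSO as 100%.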

[2] = tested on: NCI-H358 (K-Ras G12C); assay: as above; format: cell-based; settings: Homo sapiens, NCI-H358, 120 h, 5-day treatment; read-out: H358 Cell Viability assay data (K-Ras G12C, IC50)
Outline: as §1

[3] = target: KRAS G12C (Homo sapiens, UniProt P01116+P62937, G12C); assay: Disruption of BRAF RBD interaction with Ras (FRET / MOA assay, with Cyclophilin A); format: biochemical; settings: read-out: KRAS G12C FRET data, IC50
Chain of KRAS G12C (P01116 1-169 isoform P01116-2 G12C): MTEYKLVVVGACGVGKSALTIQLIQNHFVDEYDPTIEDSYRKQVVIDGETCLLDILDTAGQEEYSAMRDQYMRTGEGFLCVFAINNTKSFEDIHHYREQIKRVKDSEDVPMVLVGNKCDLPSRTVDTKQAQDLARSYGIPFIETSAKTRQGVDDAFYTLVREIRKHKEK
Chain of KRAS G12C (P62937 whole entry): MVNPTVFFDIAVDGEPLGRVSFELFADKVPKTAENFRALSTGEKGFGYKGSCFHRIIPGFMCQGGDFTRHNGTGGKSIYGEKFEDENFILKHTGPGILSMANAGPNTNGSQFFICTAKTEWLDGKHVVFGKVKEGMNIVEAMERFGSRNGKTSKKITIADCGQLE
Outline: (§2)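 IC50 values reflect loss of K-Ras binding to BRAF RBD, read as a lowered TR-FRET ratio compared with DMSO, driven by compound-mediated K-Ras:Cyclophilin A complex formation. Compound top dose 30 μM final, 3-fold steps, 3 h incubation at 25 °C before a 1.5 h antibody step.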

[4] = target: KRAS G12D (Homo sapiens, UniProt P01116+P62937, G12D); assay: as above; format: biochemical; settings: read-out: KRAS G12D FRET data, IC50
Chain of KRAS G12D (P01116 1-169 isoform P01116-2 G12D limits assumed): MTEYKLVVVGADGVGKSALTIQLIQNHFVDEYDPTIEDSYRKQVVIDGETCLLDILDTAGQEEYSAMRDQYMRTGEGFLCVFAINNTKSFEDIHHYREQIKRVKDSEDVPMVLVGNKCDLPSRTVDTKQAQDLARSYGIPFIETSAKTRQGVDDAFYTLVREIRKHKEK
Chain of KRAS G12D (P62937 whole entry): as the sequence (P62937 whole entry) above
Outline: as §2

[5] = target: KRAS G12S (Homo sapiens, UniProt P01116+P62937, G12S); assay: as above; format: biochemical; settings: read-out: KRAS G12S FRET data, IC50
Chain of KRAS G12S (P01116 1-169 isoform P01116-2 G12S limits assumed): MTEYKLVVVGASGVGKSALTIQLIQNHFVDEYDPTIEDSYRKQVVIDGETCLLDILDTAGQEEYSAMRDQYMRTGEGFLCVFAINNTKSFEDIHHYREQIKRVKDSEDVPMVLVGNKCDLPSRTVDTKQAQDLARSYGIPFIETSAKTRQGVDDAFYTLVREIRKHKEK
Chain of KRAS G12S (P62937 whole entry): as the sequence (P62937 whole entry) above
Outline: as §2

[6] = target: KRAS G12V (Homo sapiens, UniProt P01116+P62937, G12V); assay: as above; format: biochemical; settings: KRAS G12V; read-out: KRAS G12V FRET data IC50
Chain of KRAS G12V (P01116 1-169 isoform P01116-2 G12V limits assumed): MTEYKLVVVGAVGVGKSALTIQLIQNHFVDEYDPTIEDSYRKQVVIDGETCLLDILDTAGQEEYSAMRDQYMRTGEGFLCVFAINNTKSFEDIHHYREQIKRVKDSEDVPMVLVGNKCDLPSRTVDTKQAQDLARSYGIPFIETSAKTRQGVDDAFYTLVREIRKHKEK
Chain of KRAS G12V (P62937 whole entry): as the sequence (P62937 whole entry) above
Outline: as §2

[7] = target: KRAS G13C (Homo sapiens, UniProt P01116+P62937, G13C); assay: as above; format: biochemical; settings: read-out: KRAS G13C FRET data, IC50
Chain of KRAS G13C (P01116 1-169 isoform P01116-2 G13C): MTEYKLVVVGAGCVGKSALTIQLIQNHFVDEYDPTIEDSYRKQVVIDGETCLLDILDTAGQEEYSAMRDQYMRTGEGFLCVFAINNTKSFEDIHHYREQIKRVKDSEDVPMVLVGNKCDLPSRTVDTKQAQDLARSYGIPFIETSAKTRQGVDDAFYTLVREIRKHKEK
Chain of KRAS G13C (P62937 whole entry): as the sequence (P62937 whole entry) above
Outline: as §2

[8] = target: KRAS G13D (Homo sapiens, UniProt P01116+P62937, G13D); assay: as above; format: biochemical; settings: KRAS G13D; read-out: KRAS G13D FRET data IC50
Chain of KRAS G13D (P01116 1-169 isoform P01116-2 G13D limits assumed): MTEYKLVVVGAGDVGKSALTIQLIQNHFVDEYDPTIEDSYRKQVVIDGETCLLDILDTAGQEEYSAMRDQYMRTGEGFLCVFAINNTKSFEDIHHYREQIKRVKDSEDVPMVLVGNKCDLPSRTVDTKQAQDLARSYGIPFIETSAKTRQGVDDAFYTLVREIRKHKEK
Chain of KRAS G13D (P62937 whole entry): as the sequence (P62937 whole entry) above
Outline: as §2

[9] = target: KRAS WT (Homo sapiens, UniProt P01116+P62937); assay: as above; format: biochemical; settings: KRAS WT; read-out: KRAS WT FRET data IC50
Chain of KRAS WT (P01116 1-169 isoform P01116-2 limits assumed): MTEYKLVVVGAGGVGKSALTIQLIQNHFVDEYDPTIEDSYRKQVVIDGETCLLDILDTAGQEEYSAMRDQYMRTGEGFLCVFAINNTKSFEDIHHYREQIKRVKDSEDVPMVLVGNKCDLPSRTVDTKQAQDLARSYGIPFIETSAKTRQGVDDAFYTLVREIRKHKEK
Chain of KRAS WT (P62937 whole entry): as the sequence (P62937 whole entry) above
Outline: as §2

[10] = target: NRAS G12C (Homo sapiens, UniProt P01111+P62937, G12C); assay: as above; format: biochemical; settings: NRAS G12C; read-out: NRAS G12C FRET data IC50
Chain of NRAS G12C (P01111 whole entry G12C): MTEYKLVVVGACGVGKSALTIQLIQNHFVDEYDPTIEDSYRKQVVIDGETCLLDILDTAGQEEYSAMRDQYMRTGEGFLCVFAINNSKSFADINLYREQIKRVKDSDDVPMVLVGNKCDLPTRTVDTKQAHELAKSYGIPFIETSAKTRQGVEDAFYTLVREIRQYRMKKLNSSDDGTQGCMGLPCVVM
Chain of NRAS G12C (P62937 whole entry): as the sequence (P62937 whole entry) above

[11] = target: KRAS Q61H (Homo sapiens, UniProt P01116+P62937, Q61H); assay: as above; format: biochemical; settings: KRAS Q61H; read-out: KRAS Q61H FRET data IC50
Chain of KRAS Q61H (P01116 1-169 isoform P01116-2 Q61H limits assumed): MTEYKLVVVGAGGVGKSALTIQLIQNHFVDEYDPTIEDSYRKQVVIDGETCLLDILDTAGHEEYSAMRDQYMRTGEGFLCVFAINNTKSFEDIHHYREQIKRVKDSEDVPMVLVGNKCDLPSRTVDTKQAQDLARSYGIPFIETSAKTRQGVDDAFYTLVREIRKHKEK
Chain of KRAS Q61H (P62937 whole entry): as the sequence (P62937 whole entry) above
Outline: (§3)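 TR-FRET in 25 mM HEPES pH 7.3, 100 mM NaCl, 5 mM MgCl2, 0.1% BSA: 25 μM Cyclophilin A, 12.5 nM His6-Ras-GMPPNP, 50 nM GST-BRAF RBD with compound (10-point 3-fold series from 30 μM), 3 h at 25° C. Anti-His Eu/anti-GST APC added, 1.5 h more; IC50 from decreased FRET ratio versus DMSO.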

[12] = target: NRAS Q61K (Homo sapiens, UniProt P01111+P62937, Q61K); assay: as above; format: biochemical; settings: NRAS Q61K; read-out: NRAS Q61K FRET data IC50
Chain of NRAS Q61K (P01111 whole entry Q61K): as the sequence (P01111 whole entry G12C) above, with C12G, Q61K counted along it
Chain of NRAS Q61K (P62937 whole entry): as the sequence (P62937 whole entry) above
Outline: as §3

[13] = target: NRAS Q61R (Homo sapiens, UniProt P01111+P62937, Q61R); assay: as above; format: biochemical; settings: NRAS Q61R; read-out: NRAS Q61R FRET data IC50
Chain of NRAS Q61R (P01111 whole entry Q61R): as the sequence (P01111 whole entry G12C) above, with C12G, Q61R counted along it
Chain of NRAS Q61R (P62937 whole entry): as the sequence (P62937 whole entry) above
Outline: as §3

[14] = target: NRAS WT (Homo sapiens, UniProt P01111+P62937); assay: as above; format: biochemical; settings: NRAS WT; read-out: NRAS WT FRET data IC50
Chain of NRAS WT (P01111 whole entry): as the sequence (P01111 whole entry G12C) above, with C12G counted along it
Chain of NRAS WT (P62937 whole entry): as the sequence (P62937 whole entry) above
Outline: as §3

Compound | IC50 [1] [nM] | IC50 [2] [nM] | IC50 [3] [nM] | IC50 [4] [nM] | IC50 [5] [nM] | IC50 [6] [nM] | IC50 [7] [nM] | IC50 [8] [nM] | IC50 [9] [nM] | IC50 [10] [nM] | IC50 [11] [nM] | IC50 [12] [nM] | IC50 [13] [nM] | IC50 [14] [nM]
CCn1c(-c2cccnc2[C@H](C)OC)c2c3cc(ccc31)-c1csc(n1)C[C@H](NC(=O)[C@H](C(C)C)N(C)C(=O)N1CC([C@@H](C)N(C)C)C1)C(=O)N1CCC[C@H](N1)C(=O)OCC(C)(C)C2 (atropisomer, axis not shown) [Example A458] | 10 to 100 | 10 to 100 | 10 to 100 | 100 to 1000 | 100 to 1000 | 100 to 1000 | 100 to 1000 | 100 to 1000 | 100 to 1000 | 10 to 100 | 100 to 1000 | 10 to 100 | 100 to 1000 | 100 to 1000
CCn1c(-c2cccnc2[C@H](C)OC)c2c3cc(ccc31)-c1csc(n1)C[C@H](NC(=O)[C@H](C(C)C)N(C)C(=O)N1CC3(CC(N(C)CCO)C3)C1)C(=O)N1CCC[C@H](N1)C(=O)OCC(C)(C)C2 (atropisomer, axis not shown) [Example A467] | 10 to 100 | 10 to 100 | 10 to 100 | 100 to 1000 | 100 to 1000 | 100 to 1000 | 100 to 1000 | 100 to 1000 | 100 to 1000 | 10 to 100 | 10 to 100 | 10 to 100 | 100 to 1000 | 100 to 1000
CCn1c(-c2cccnc2[C@H](C)OC)c2c3cc(ccc31)-c1csc(n1)C[C@H](NC(=O)[C@H](C(C)C)N(C)C(=O)N1CC[C@H]3CN(C)C[C@H]31)C(=O)N1CCC[C@H](N1)C(=O)OCC(C)(C)C2 (atropisomer, axis not shown) [Example A471] | 100 to 1000 | 100 to 1000 | 10 to 100 | 100 to 1000 | 100 to 1000 | 100 to 1000 | 100 to 1000 | 100 to 1000 | 100 to 1000 | 10 to 100 | 10 to 100 | 10 to 100 | 100 to 1000 | 10 to 100
CCn1c(-c2cc(N3CCN(C)CC3)cnc2[C@H](C)OC)c2c3cc(ccc31)-c1csc(n1)C[C@H](NC(=O)[C@H](C(C)C)N(C)C(=O)N1C[C@@H](C)N(C)C[C@H]1C)C(=O)N1CCC[C@H](N1)C(=O)OCC(C)(C)C2 (atropisomer, axis not shown) [Example A476] | < 10 | < 10 | 100 to 1000 | 100 to 1000 | 100 to 1000 | 100 to 1000 | 100 to 1000 | 100 to 1000 | 100 to 1000 | 10 to 100 | 100 to 1000 | 100 to 1000 | 100 to 1000 | 100 to 1000
CCn1c(-c2cc(N3CCN(C)CC3)cnc2[C@H](C)OC)c2c3cc(ccc31)-c1csc(n1)C[C@H](NC(=O)[C@H](C(C)C)N(C)C(=O)N1CC(N(C)C)C1)C(=O)N1CCC[C@H](N1)C(=O)OCC(C)(C)C2 (atropisomer, axis not shown) [Example A477] | < 10 | < 10 | 10 to 100 | 100 to 1000 | 100 to 1000 | 10 to 100 | 100 to 1000 | 100 to 1000 | 100 to 1000 | 10 to 100 | 10 to 100 | 10 to 100 | 10 to 100 | 10 to 100
CCn1c(-c2cccnc2[C@H](C)OC)c2c3cc(ccc31)-c1csc(n1)C[C@H](NC(=O)[C@H](C(C)C)N(C)C(=O)N1CC([C@H](C)CO)C1)C(=O)N1CCC[C@H](N1)C(=O)OCC(C)(C)C2 (atropisomer, axis not shown) [Example A478] | 10 to 100 | < 10 | 10 to 100 | 100 to 1000 | 100 to 1000 | 100 to 1000 | 100 to 1000 | 100 to 1000 | 100 to 1000 | 10 to 100 | 10 to 100 | 10 to 100 | 100 to 1000 | 10 to 100
CCn1c(-c2cc(N3CCN(C)CC3)cnc2[C@H](C)OC)c2c3cc(ccc31)-c1csc(n1)C[C@H](NC(=O)[C@H](C(C)C)N(C)C(=O)N1CCC13CCN(C)CC3)C(=O)N1CCC[C@H](N1)C(=O)OCC(C)(C)C2 (atropisomer, axis not shown) [Example A483] | 10 to 100 | < 10 | 10 to 100 | 10 to 100 | 10 to 100 | 100 to 1000 | 100 to 1000 | 100 to 1000 | 10 to 100 | 10 to 100 | 10 to 100 | 10 to 100 | 10 to 100 | 10 to 100
CCn1c(-c2cc(C3CCN(C)CC3)cnc2[C@H](C)OC)c2c3cc(ccc31)-c1csc(n1)C[C@H](NC(=O)[C@H](C(C)C)N(C)C(=O)N(C)C)C(=O)N1CCC[C@H](N1)C(=O)OCC(C)(C)C2 (atropisomer, axis not shown) [Example A484] | < 10 | < 10 | 10 to 100 | 100 to 1000 | 100 to 1000 | 100 to 1000 | 100 to 1000 | 100 to 1000 | 100 to 1000 | 10 to 100 | 10 to 100 | 10 to 100 | 100 to 1000 | 10 to 100
CCn1c(-c2cccnc2[C@H](C)OC)c2c3cc(ccc31)-c1csc(n1)C[C@H](NC(=O)[C@H](C(C)C)N(C)C(=O)N1CC3(CC(N4CCOCC4)C3)C1)C(=O)N1CCC[C@H](N1)C(=O)OCC(C)(C)C2 (atropisomer, axis not shown) [Example A486] | 10 to 100 | 10 to 100 | 100 to 1000 | 1000 to 10000 | 100 to 1000 | 100 to 1000 | 100 to 1000 | 100 to 1000 | 100 to 1000 | 100 to 1000 | 100 to 1000 | 10 to 100 | 100 to 1000 | 100 to 1000
